In patent US7951815B2, “Substituted 1,4,8-triazaspiro [4,5]decan-2-one compounds” (Gruenenthal GmbH, priority 2004, dated 2011):

The molecules below were run against T1, 5-HT transporter (Rattus norvegicus, UniProt P31652) (assay: Inhibition of 5-HT uptake in rat brain synaptosomes). Conditions: Table III; rat, 1 μM.
T1 construct: synaptosomes of rat brain areas are freshly isolated; from tissue; host or cells: rat brain synaptosomes (P2 fraction) from marrow and pons
Type: biochemical

T1 sequence (P31652 whole entry): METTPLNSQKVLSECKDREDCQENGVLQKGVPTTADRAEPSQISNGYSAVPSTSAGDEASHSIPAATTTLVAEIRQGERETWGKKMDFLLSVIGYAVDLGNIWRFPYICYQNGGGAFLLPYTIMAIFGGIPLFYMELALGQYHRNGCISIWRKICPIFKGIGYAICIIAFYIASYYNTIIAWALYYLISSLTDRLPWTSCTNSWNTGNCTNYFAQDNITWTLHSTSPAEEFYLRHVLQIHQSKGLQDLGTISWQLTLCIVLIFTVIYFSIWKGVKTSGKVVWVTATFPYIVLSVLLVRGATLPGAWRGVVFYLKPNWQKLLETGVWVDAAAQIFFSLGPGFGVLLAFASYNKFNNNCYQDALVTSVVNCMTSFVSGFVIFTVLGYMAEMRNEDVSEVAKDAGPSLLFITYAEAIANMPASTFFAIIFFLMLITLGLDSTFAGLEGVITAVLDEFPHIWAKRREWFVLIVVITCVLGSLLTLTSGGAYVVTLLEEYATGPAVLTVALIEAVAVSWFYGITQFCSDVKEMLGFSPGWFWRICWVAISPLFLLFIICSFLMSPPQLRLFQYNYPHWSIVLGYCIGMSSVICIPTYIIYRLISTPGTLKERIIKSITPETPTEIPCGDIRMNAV

| Compound | Uptake 5-HT, rat, 1 μM, % inhibition |
| --- | --- |
| CC(=O)OC(C(=O)N1CCC2(CC1)NCC(=O)N2Cc1cccc(C#N)c1)c1ccccc1 (stereo not shown) [Example 284, Ethyl 2-[1-(3-cyanobenzyl)-2-oxo-1,4,8-triazaspiro[4,5]dec-8-yl]-2-oxo-1-phenylacetate] | 51% |
| CCOc1ccccc1C(=O)N1CCC2(CC1)NC(CC(C)C)C(=O)N2CCCCOC(C)=O (stereo not shown) [Example 310, Butyl 4-[8-(2-ethoxybenzoyl)-3-isobutyl-2-oxo-1,4,8-triazaspiro[4,5]dec-1-yl]acetate] | 48% |

Same assay, conditions: read-out: Uptake 5-HT, % inhibition; Table III; rat, 1 μM

| Compound | inhibition at 1 µM |
| --- | --- |
| CCCCN1C(=O)C(CCSC)NC12CCN(C(=O)c1cc(C)oc1C)CC2 (stereo not shown) [Example 219, 1-Butyl-8-(2,5-dimethylfuran-3-carbonyl)-3-(2-methylsulfanylethyl)-1,4,8-triazaspiro[4,5]decan-2-one] | 30% |
| CN1C(=O)C(Cc2ccccc2)NC12CCN(C(=O)c1ccc(C(F)(F)F)c(F)c1)CC2 (stereo not shown) [Example 191, 3-Benzyl-8-(3-fluoro-4-trifluoromethylbenzoyl)-1-methyl-1,4,8-triazaspiro[4,5]decan-2-one] | 30% |
| CC(C)(C)CC(=O)N1CCC2(CC1)NC(=O)C(Cc1ccccc1)N2 (stereo not shown) [Example 110, 3-Benzyl-8-(3,3-dimethylbutyryl)-1,4,8-triazaspiro[4,5]decan-2-one] | 33% |
| CC(C)C1NC2(CCN(C(=O)c3cccc(SC(F)F)c3)CC2)N(Cc2ccccc2)C1=O (stereo not shown) [Example 192, 1-Benzyl-8-(3-difluoromethylsulfanylbenzoyl)-3-isopropyl-1,4,8-triazaspiro[4,5]decan-2-one] | 53% |
| Cc1nnsc1C(=O)N1CCC2(CC1)NC(C(C)C)C(=O)N2Cc1ccccc1 (stereo not shown) [Example 216, 1-Benzyl-3-isopropyl-8-(4-methyl[1,2,3]thiadiazole-5-carbonyl)-1,4,8-triazaspiro[4,5]decan-2-one] | 55% |
| CCCCN1C(=O)C(Cc2ccccc2)NC12CCN(C(=O)c1ccco1)CC2 (stereo not shown) [Example 153, 3-Benzyl-1-butyl-8-(furan-2-carbonyl)-1,4,8-triazaspiro[4,5]decan-2-one] | 63% |
| O=C1NC2(CCN(C(=O)c3ccccc3Cl)CC2)NC1Cc1ccccc1 (stereo not shown) [Example 84, 3-Benzyl-8-(2-chlorobenzoyl)-1,4,8-triazaspiro[4,5]decan-2-one] | 64% |
| CSCCC1NC2(CCN(C(=O)c3cccc4ccccc34)CC2)N(C)C1=O (stereo not shown) [Example 187, 1-Methyl-3-(2-methylsulfanylethyl)-8-(naphthalin-1-carbonyl)-1,4,8-triazaspiro[4,5]decan-2-one] | 47% |
| CCCCN1C(=O)C(CCSC)NC12CCN(C(=O)COCc1ccccc1)CC2 (stereo not shown) [Example 159, 8-(2-Benzyloxyacetyl)-1-butyl-3-(2-methylsulfanylethyl)-1,4,8-triazaspiro[4,5]decan-2-one] | 40% |
| Cc1cc(C(=O)N2CCC3(CC2)NC(=O)C(C(C)C)N3)ccc1Br (stereo not shown) [Example 130, 8-(4-Bromo-3-methylbenzoyl)-3-isopropyl-1,4,8-triazaspiro[4,5]decan-2-one] | 32% |
| CC(C)C1NC2(CCN(C(=O)c3cccnc3Cl)CC2)N(Cc2ccccc2)C1=O (stereo not shown) [Example 157, 1-Benzyl-8-(2-chloropyridin-3-carbonyl)-3-isopropyl-1,4,8-triazaspiro[4,5]decan-2-one] | 64% |
| CCCCN1C(=O)C(CCSC)NC12CCN(C(=O)C1CCCCC1)CC2 (stereo not shown) [Example 206, 1-Butyl-8-cyclohexanecarbonyl-3-(2-methylsulfanylethyl)-1,4,8-triazaspiro[4,5]decan-2-one] | 55% |
| COC(=O)c1ccc(CN2C(=O)C(C(C)C)NC23CCN(C(=O)c2cccnc2SC)CC3)cc1 (stereo not shown) [Example 194, Methyl 4-[3-isopropyl-8-(2-methylsulfanylpyridin-3-carbonyl)-2-oxo-1,4,8-triazaspiro[4,5]dec-1-ylmethyl]benzoate] | 32% |
| CSc1ncccc1C(=O)N1CCC2(CC1)NC(Cc1ccccc1)C(=O)N2C (stereo not shown) [Example 143, 3-Benzyl-1-methyl-8-(2-methylsulfanylpyridin-3-carbonyl)-1,4,8-triazaspiro[4,5]decan-2-one] | 42% |

Results, then the molecule that gave them:

| inhibition at 1 µM | Compound |
| --- | --- |
| 59% | N#Cc1cccc(CN2C(=O)CNC23CCN(C(=O)c2ccccc2C(F)(F)F)CC3)c1 [Example 308, 3-[2-Oxo-8-(2-trifluoromethylbenzoyl)-1,4,8-triazaspiro[4,5]dec-1-ylmethyl]benzonitrile] |
| 30% | CC(C)=CCN1C(=O)C(C(C)C)NC12CCN(C(=O)c1c(-c3c(F)cccc3Cl)noc1C)CC2 (stereo not shown) [Example 233, 8-[3-(2-Chloro-6-fluorophenyl)-5-methylisoxazole-4-carbonyl]-3-isopropyl-1-(3-methylbut-2-enyl)-1,4,8-triazaspiro[4,5]decan-2-one] |
| 36% | CCCCN1C(=O)C(CCSC)NC12CCN(C(=O)c1cc(OC)cc(OC)c1)CC2 (stereo not shown) [Example 229, 1-Butyl-8-(3,5-dimethoxybenzoyl)-3-(2-methylsulfanylethyl)-1,4,8-triazaspiro[4,5]decan-2-one] |
| 36% | Cc1cc(C(=O)N2CCC3(CC2)NC(Cc2ccccc2)C(=O)N3C)no1 (stereo not shown) [Example 239, 3-Benzyl-1-methyl-8-(5-methylisoxazole-3-carbonyl)-1,4,8-triazaspiro[4,5]decan-2-one] |
| 61% | CCOC(=O)CN1C(=O)C(Cc2ccccc2)NC12CCN(C(=O)c1ccccc1F)CC2 (stereo not shown) [Example 315, Ethyl [3-benzyl-8-(2-fluorobenzoyl)-2-oxo-1,4,8-triazaspiro[4,5]dec-1-yl]acetate] |
| 38% | COc1ccc(CC(=O)N2CCC3(CC2)NCC(=O)N3Cc2ccccc2F)cc1 [Example 320, 1-(2-Fluorobenzyl)-8-[2-(4-methoxyphenyl)acetyl]-1,4,8-triazaspiro[4,5]decan-2-one] |
| 73% | COC(=O)c1ccc(CN2C(=O)CNC23CCN(C(=O)c2cccnc2Cl)CC3)cc1 [Example 252, Methyl 4-[8-(2-chloropyridin-3-carbonyl)-2-oxo-1,4,8-triazaspiro[4,5]dec-1-ylmethyl]benzoate] |
| 50% | CCOC(=O)CN1C(=O)C(CCSC)NC12CCN(C(=O)CC)CC2 (stereo not shown) [Example 263, Ethyl [3-(2-methylsulfanylethyl)-2-oxo-8-propionyl-1,4,8-triazaspiro[4,5]dec-1-yl]acetate] |
| 47% | COC(=O)c1ccc(CN2C(=O)CNC23CCN(C(=O)C2CCCCC2)CC3)cc1 [Example 286, Methyl 4-(8-cyclohexanecarbonyl-2-oxo-1,4,8-triazaspiro[4,5]dec-1-ylmethyl)benzoate] |
| 49% | COc1cccc(C(=O)N2CCC3(CC2)NCC(=O)N3Cc2ccccc2F)c1 [Example 311, 1-(2-Fluorobenzyl)-8-(3-methoxybenzoyl)-1,4,8-triazaspiro[4,5]decan-2-one] |
| 82% | Cc1cc(C(=O)N2CCC3(CC2)NCC(=O)N3Cc2ccccc2F)n(C(C)(C)C)n1 [Example 253, 8-(2-tert-Butyl-5-methyl-2H-pyrazole-3-carbonyl)-1-(2-fluorobenzyl)-1,4,8-triazaspiro[4,5]decan-2-one] |
| 51% | C#CCN1C(=O)C(Cc2ccccc2)NC12CCN(C(=O)c1snnc1C)CC2 (stereo not shown) [Example 244, 3-Benzyl-8-(4-methyl[1,2,3]thiadiazole-5-carbonyl)-1-prop-2-ynyl-1,4,8-triazaspiro[4,5]decan-2-one] |
